Patent US20240277603A1, “COSMETIC USE OF AN OILY EXTRACT FROM DISTILLATION RESIDUE OF IMMORTELLE AS A SKIN BRIGHTENING AGENT” (LABORATOIRES M&L, priority 2021, published 2024)

Experiments:
mouse B16 melanocytes [1] = test: Inhibition of melanin production by NDP-MSH-stimulated B16 melanocytes (melanin assay, absorbance at 405 nm); assay type: cell-based; conditions: for inhibition of pigmentation (melanin production): Example 3, FIG. 3, B16 + NDP-MSH, extract 0.035%, hexylresorcinol 5 μg/mL, alone or combined, kojic acid and vitamin C positive controls; for efficacy as positive control for pigmentation inhibition (melanin production): Example 2, FIGS. 1 and 2, B16 + 0.1 μM NDP-MSH, 72 h, kojic acid 3 mM, vitamin C (ascorbyl glucoside) 0.5%, ***p<0.001, ****p<0.0001
Procedure: All the conditions were tested in triplicate.
For the melanin assay, the medium in each well was aspirated and the cells lyzed by adding 50 μl of 1M NaOH to the cell lawn. The plates were shaken for 30 minutes at room temperature, and the lyzate was then transferred to glass flasks and incubated overnight at 95° C. After incubation, the lyzates were centrifuged at 2000 rpm to remove the cell debris. The absorbance of the supernatant was read at 405 nm, reflecting the amount of melanin in each well, and the average of the three replicates was determined for each condition. A well of cells not treated with NDP-MSH was used as a control, and its OD value subtracted from all the OD values of the other wells. The percentage of melanin inhibition was then calculated according to the formula:
100−((melanin amount in test condition/melanin amount in untreated control)×100)
The significance of the results was evaluated using a one-way Anova test (for the distillation residue extract and the oily extract of flowering tops) or Student's t test (for kojic acid and vitamin C).
The results were compared with the effect obtained with the extract according to the invention alone and hexylresorcinol alone, used at the same doses.

mouse B16 melanocytes [2] = conditions: Example 3, preliminary cytotoxicity study on the cells
Procedure: Melanocytes (mouse line B16) were seeded in 96-well plates at 2000 cells per well in phenol red-free DMEM medium containing 10% fetal calf serum, 2 mM glutamine, 1 mM sodium pyruvate and 100 μg/ml normocin. The following day, the cells were treated with 0.1 μM of NDP-MSH to induce pigmentation. Under the test conditions, in the presence of NDP-MSH, kojic acid at 3 mM and vitamin C (ascorbyl glucoside) at 0.5% were used as positive controls for pigmentation inhibition, and the extracts to be evaluated were tested at several concentrations. All the conditions were tested in triplicate. The cells were incubated at 37° C., 5% CO2 for 72 h in the presence of the extracts and positive controls.

SMILES	inhibition of pigmentation (melanin production) (mouse B16 melanocytes [1])	maximum non-cytotoxic dose (mouse B16 melanocytes [2]) [µg/mL]	efficacy as positive control for pigmentation inhibition (melanin production) (mouse B16 melanocytes [1])
CCCCCCc1ccc(O)cc1O [hexylresorcinol, 4-hexyl-1,3-phenylenediol]	confirms the depigmenting efficacy	10	–
O=c1cc(CO)occ1O [kojic acid]	demonstrating the efficacy	–	demonstrating the efficacy
O=C1O[C@H]([C@@H](O)CO)C(O)=C1O[C@H]1O[C@H](CO)[C@@H](O)[C@H](O)[C@H]1O [vitamin C, ascorbyl glucoside]	demonstrating the efficacy	–	demonstrating the efficacy
